In PMC3268193 (British Journal of Pharmacology, 2012):
Positions count from the first letter of the chain named.

Legend:
[1] = biological target: T1, human P2X1 receptor WT (Homo sapiens, UniProt P51575); test: Two-electrode voltage clamp, WT P2X1 receptor in Xenopus oocytes; type: cell-based
T1 sequence (P51575 1-399): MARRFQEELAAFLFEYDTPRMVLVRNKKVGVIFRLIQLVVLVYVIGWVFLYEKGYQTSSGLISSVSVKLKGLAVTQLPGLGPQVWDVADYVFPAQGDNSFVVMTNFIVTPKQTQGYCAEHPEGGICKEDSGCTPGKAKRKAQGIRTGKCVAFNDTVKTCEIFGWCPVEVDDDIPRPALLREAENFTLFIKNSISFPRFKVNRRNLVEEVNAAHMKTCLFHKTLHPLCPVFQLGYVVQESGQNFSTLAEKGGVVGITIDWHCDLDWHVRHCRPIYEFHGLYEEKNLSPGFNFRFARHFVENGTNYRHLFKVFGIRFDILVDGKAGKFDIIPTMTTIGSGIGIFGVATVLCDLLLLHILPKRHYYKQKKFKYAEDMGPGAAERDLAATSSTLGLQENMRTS

[2] = system: WT or mutant P2X receptors; test: Holding current in the absence of ATP; type: cell-based, human
[3] = biological target: T2, P2X1 Cys2(3-4) chimera (Homo sapiens, UniProt P51575, A137L/A141G/I144L/K136E/K138D/K140L/K148R/P134A/Q142N/R139M/T133V); test: Two-electrode voltage clamp, chimera P2X1 Cys2; type: cell-based
T2 sequence (P51575 1-399 T133V/P134A/K136E/A137L/K138D/R139M/K140L/A141G/Q142N/I144L/K148R): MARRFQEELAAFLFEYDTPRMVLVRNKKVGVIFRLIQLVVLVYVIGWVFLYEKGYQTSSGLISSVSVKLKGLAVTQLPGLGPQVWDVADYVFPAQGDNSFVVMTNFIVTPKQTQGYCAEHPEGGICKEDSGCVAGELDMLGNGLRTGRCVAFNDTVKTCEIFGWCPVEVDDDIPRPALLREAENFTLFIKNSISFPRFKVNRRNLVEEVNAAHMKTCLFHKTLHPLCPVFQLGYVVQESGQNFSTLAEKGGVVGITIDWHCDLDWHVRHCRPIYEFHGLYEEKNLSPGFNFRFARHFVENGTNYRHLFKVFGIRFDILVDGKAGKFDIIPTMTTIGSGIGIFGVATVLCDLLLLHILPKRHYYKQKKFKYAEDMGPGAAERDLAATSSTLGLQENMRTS

[4] = biological target: T3, P2X1 receptor mutant R139M (Homo sapiens, UniProt P51575, R139M); test: Two-electrode voltage clamp, P2X1 mutant R139M; type: cell-based
T3 sequence (P51575 1-399 R139M): T1 sequence (P51575 1-399) with R139M

[5] = biological target: T4, P2X1 receptor mutant KAKRK → ELDML(5) (Homo sapiens, UniProt P51575, A137L/K136E/K138D/K140L/R139M); test: Two-electrode voltage clamp, P2X1 mutant X1-ELDML; type: cell-based
T4 sequence (P51575 1-399 K136E/A137L/K138D/R139M/K140L): T1 sequence (P51575 1-399) with K136E, A137L, K138D, R139M, K140L

[6] = biological target: T5, P2X1 receptor mutant KAKRK → EADRK(2) (Homo sapiens, UniProt P51575, K136E/K138D); test: Two-electrode voltage clamp, P2X1 mutant X1-EADRK; type: cell-based
T5 sequence (P51575 1-399 K136E/K138D): T1 sequence (P51575 1-399) with K136E, K138D

[7] = system: P2X7 receptor; details: ref Fonfria et al., 2008; cited from earlier work

| Structure (SMILES) | Schild slope ([1]; WT P2X1) | Hill slope of NF449 inhibition curve ([1]; WT P2X1, vs EC90 ATP) | Effect on holding current ([2]; NF449 10 µM) | Decrease in NF449 sensitivity compared with P2X1 WT [3] [fold] | Reduction of ATP-evoked current ([4]; 1 nM antagonist, EC90 ATP (10 µM)) | Reduction in NF449 sensitivity compared with WT P2X1 [5] [fold] | Extra decrease in NF449 sensitivity compared with the K138D mutant [6] [fold] | Difference in suramin sensitivity between human P2X1 and P2X2 receptors [1] [fold] | Effectiveness at guinea pig compared with rat and human P2X7 isoforms [7] [fold] | Effect on holding current ([2]; suramin 100 µM) | Effect of mutation on suramin sensitivity [4] |
| --- | --- | --- | --- | --- | --- | --- | --- | --- | --- | --- | --- |
| O=C(Nc1cc(C(=O)Nc2ccc(S(=O)(=O)O)cc2S(=O)(=O)O)cc(C(=O)Nc2ccc(S(=O)(=O)O)cc2S(=O)(=O)O)c1)Nc1cc(C(=O)Nc2ccc(S(=O)(=O)O)cc2S(=O)(=O)O)cc(C(=O)Nc2ccc(S(=O)(=O)O)cc2S(=O)(=O)O)c1 [NF449, 4,4′,4′′,4′′′-(carbonylbis(imino-5,1,3-benzenetriyl-bis(carbonylimino)))tetrakis-benzene-1,3-disulphonic acid] | 1.17± 0.16 | 0.98 ± 0.13 | no effect | ~1700 | 40–70% | ~700 | ~15 | – | – | – | – |
| Cc1ccc(C(=O)Nc2ccc(S(=O)(=O)O)c3cc(S(=O)(=O)O)cc(S(=O)(=O)O)c23)cc1NC(=O)c1cccc(NC(=O)Nc2cccc(C(=O)Nc3cc(C(=O)Nc4ccc(S(=O)(=O)O)c5cc(S(=O)(=O)O)cc(S(=O)(=O)O)c45)ccc3C)c2)c1 [suramin] | – | – | – | – | – | – | – | ~60 | ~10 | no effect | no effect |
